Results from PubChem BioAssay AID1963426 (Molecular Pharmacology Branch, DTP, NCI, 2024).

Test system: 186277-243-T-J2-PDC complex spheroid growth, % test/control
Experiment: Anticancer human tumor 186277-243-T-J2-PDC patient-derived colon adenocarcinoma cell line growth inhibition [Asc]
Conditions: for IC50: curve of first compound; for viability, T/C: stronger effect = lower value; active = viability on the fitted dose curve at most 10% of control; inactive = the rest
In short: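 Complex spheroids combining tumor cells with HUVEC endothelial cells and human MSCs, at 37 degrees C, 5% CO2; agents tested alone or combined, half-log dilutions from at or near clinical Cmax, or 10 microM if Cmax unknown.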
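Also: spheroids exposed to agents for 7 days.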
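For viability, T/C in this document: 100% = DMSO vehicle control wells.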

C=CC(=O)N1CCN(c2nc(=O)n(-c3c(C)ccnc3C(C)C)c3nc(-c4c(O)cccc4F)c(F)cc23)C(C)C1 (stereo not given) + CCN1C(C(=O)NC23CCC(C(=O)O)(CC2)CC3)C(c2cccc(Cl)c2F)C2(C(=O)Nc3cc(Cl)ccc32)C12CCCCC2
> 10 µM: IC50 (second compound 0.03 µM) | IC50 (second compound 0.0949 µM) | IC50 (second compound 0.3 µM)
inactive: viability, T/C (second compound 0.03 µM, first compound 0.0316 µM) 124% | viability, T/C (second compound 0.03 µM, first compound 0.1 µM) 119% | viability, T/C (second compound 0.03 µM, first compound 0.316 µM) 119% | viability, T/C (second compound 0.03 µM, first compound 1 µM) 127% | viability, T/C (second compound 0.03 µM, first compound 3.16 µM) 122% | viability, T/C (second compound 0.03 µM, first compound 10 µM) 125% | viability, T/C (second compound 0.0949 µM, first compound 0.0316 µM) 119% | viability, T/C (second compound 0.0949 µM, first compound 0.1 µM) 92.9% | viability, T/C (second compound 0.0949 µM, first compound 0.316 µM) 112% | viability, T/C (second compound 0.0949 µM, first compound 1 µM) 94.5% | viability, T/C (second compound 0.0949 µM, first compound 3.16 µM) 113% | viability, T/C (second compound 0.0949 µM, first compound 10 µM) 103% | viability, T/C (second compound 0.3 µM, first compound 0.0316 µM) 74.9% | viability, T/C (second compound 0.3 µM, first compound 0.1 µM) 82.2% | viability, T/C (second compound 0.3 µM, first compound 0.316 µM) 81.2% | viability, T/C (second compound 0.3 µM, first compound 1 µM) 79.4% | viability, T/C (second compound 0.3 µM, first compound 3.16 µM) 74.7% | viability, T/C (second compound 0.3 µM, first compound 10 µM) 69.1% | viability, T/C (second compound 0.949 µM, first compound 0.0316 µM) 62.5% | viability, T/C (second compound 0.949 µM, first compound 0.1 µM) 59.3% | viability, T/C (second compound 0.949 µM, first compound 0.316 µM) 58.1% | viability, T/C (second compound 0.949 µM, first compound 1 µM) 57.3% | viability, T/C (second compound 0.949 µM, first compound 3.16 µM) 51.4% | viability, T/C (second compound 0.949 µM, first compound 10 µM) 42% | viability, T/C (second compound 3 µM, first compound 0.0316 µM) 33.2% | viability, T/C (second compound 3 µM, first compound 0.1 µM) 36% | viability, T/C (second compound 3 µM, first compound 0.316 µM) 35.9% | viability, T/C (second compound 3 µM, first compound 1 µM) 36.5% | viability, T/C (second compound 3 µM, first compound 3.16 µM) 41% | viability, T/C (second compound 3 µM, first compound 10 µM) 32.7%
< 0.0316 µM: IC50 (second compound 3 µM)
3.74 µM: IC50 (second compound 0.949 µM)

O=C(c1cc(Cc2n[nH]c(=O)c3ccccc23)ccc1F)N1CCN(C(=O)C2CC2)CC1 + CNC(C)C(=O)NC1CN(S(=O)(=O)c2cccc(S(=O)(=O)N3CCC4CCC(C(=O)NC(c5ccccc5)c5ccccc5)N4C(=O)C(NC(=O)C(C)NC)C3)c2)CCC2CCC(C(=O)NC(c3ccccc3)c3ccccc3)N2C1=O
inactive: viability, T/C (second compound 0.01 µM, first compound 0.0316 µM) 95.4% | viability, T/C (second compound 0.01 µM, first compound 0.1 µM) 116% | viability, T/C (second compound 0.01 µM, first compound 0.316 µM) 111% | viability, T/C (second compound 0.01 µM, first compound 1 µM) 120% | viability, T/C (second compound 0.01 µM, first compound 3.16 µM) 121% | viability, T/C (second compound 0.01 µM, first compound 10 µM) 147% | viability, T/C (second compound 0.0316 µM, first compound 0.0316 µM) 114% | viability, T/C (second compound 0.0316 µM, first compound 0.1 µM) 102% | viability, T/C (second compound 0.0316 µM, first compound 0.316 µM) 99.1% | viability, T/C (second compound 0.0316 µM, first compound 1 µM) 114% | viability, T/C (second compound 0.0316 µM, first compound 3.16 µM) 123% | viability, T/C (second compound 0.0316 µM, first compound 10 µM) 156% | viability, T/C (second compound 0.1 µM, first compound 0.0316 µM) 111% | viability, T/C (second compound 0.1 µM, first compound 0.1 µM) 112% | viability, T/C (second compound 0.1 µM, first compound 0.316 µM) 114% | viability, T/C (second compound 0.1 µM, first compound 1 µM) 123% | viability, T/C (second compound 0.1 µM, first compound 3.16 µM) 129% | viability, T/C (second compound 0.1 µM, first compound 10 µM) 149% | viability, T/C (second compound 0.316 µM, first compound 0.0316 µM) 98.2% | viability, T/C (second compound 0.316 µM, first compound 0.1 µM) 104% | viability, T/C (second compound 0.316 µM, first compound 0.316 µM) 104% | viability, T/C (second compound 0.316 µM, first compound 1 µM) 117% | viability, T/C (second compound 0.316 µM, first compound 3.16 µM) 142% | viability, T/C (second compound 0.316 µM, first compound 10 µM) 148% | viability, T/C (second compound 1 µM, first compound 0.0316 µM) 99.3% | viability, T/C (second compound 1 µM, first compound 0.1 µM) 111% | viability, T/C (second compound 1 µM, first compound 0.316 µM) 106% | viability, T/C (second compound 1 µM, first compound 1 µM) 114% | viability, T/C (second compound 1 µM, first compound 3.16 µM) 125% | viability, T/C (second compound 1 µM, first compound 10 µM) 159%
> 10 µM: IC50 (second compound 0.01 µM) | IC50 (second compound 0.0316 µM) | IC50 (second compound 0.1 µM) | IC50 (second compound 0.316 µM) | IC50 (second compound 1 µM)
